Experimental data reported in patent publication US20250084056A1, “SUBSTITUTED OXOISOINDOLINYL PIPERIDINE-2,6-DIONE COMPOUNDS” (BRISTOL-MYERS SQUIBB COMPANY, priority 2023, published 2025).

Key:
[1] = test system: NIHOVCAR3 ovarian adenocarcinoma xenograft model; assay: In vivo xenograft tumor efficacy study, NIHOVCAR3; design: species or system mice; conditions: OVCAR3 xenografts, repeated dosing
Method: The anti-cancer efficacy of Example 35 was evaluated in xenograft models by measuring the reduction in tumor volume in animals treated with Example 35 compared to vehicle control animals. First, 5-10×10^6 tumor cells/animal in a 1:1 Matrigel® mix (0.2 mL total volume) were injected subcutaneously into female NSG mice (for NIHOVCAR3) and SCID mice (for HCC1569). Both strains of mice were purchased from Jackson Laboratory. Once tumors reached ˜150-200 mm^3, animals were randomized into groups of 8-10 animals/treatment arm for efficacy studies. Example 35 was administered via oral gavage (PO) at indicated doses and regimens (Table 7). Tumor growth and body weight were measured twice/week during the course of the study to evaluate efficacy and signs of toxicity.
Example 35 was formulated in 10% ethanol, 10% Vitamin E—TPGS, 30% propylene glycol, 50% PEG400 and administered by oral gavage (final volume 0.2 mL) at the doses indicated in Table 7. […]
The efficacy for each treated arm at different dose levels were calculated using the following formula: % ΔT/ΔC=[(TVT−TVT0)/(TVC−TVC0)]×100%. […] The percentage of tumor growth inhibition was calculated from the formula: % TGI=[100%−(% ΔT/ΔC)]. […]
Example 35 was evaluated for in vivo single-agent efficacy against the HCC1569 breast carcinoma xenograft model and NIHOVCAR3 ovarian adenocarcinoma xenograft model.

Cyclin E1 = Cyclin E1 (Homo sapiens, UniProt P24864+Q96SW2); assay: Cellular degradation of Cyclin E1 (Western blot) in HCC1569 cells; format: cell-based; design: endogenous in cells; host or cells: HCC1569 (ATCC CRL-2330); conditions: HCC1569 cancer cells, 24 h, FIG. 1A
Method: (§1) The assay measured the ability of the compound to degrade Cyclin E1, inhibit RB phosphorylation, and to determine the selectivity against degradation of GSPT1 in cancer cells in vitro. HCC1569 cells (ATCC #CRL-2330) were cultured in RPMI media (Gibco, catalog A104910) supplemented with 10% FBS (Gibco, catalog 10091148). Cells were plated in tissue culture-treated 6 well plates at a density of 0.5 million cells per well in 2 mL media. The cells were then incubated overnight in a cell culture incubator (5% CO2 and 37° C.) and allowed to attach to the plate. The following day cells were dosed with compounds at the desired concentrations. Compounds were first resuspended in DMSO to make 10 mM stock, and 20 μM stock was prepared by diluting 10 mM stock in culture media. […] Total protein concentration was measured using a BCA assay kit (Thermo Scientific, cat #P123227). […] Protein was then detected by incubating blots with 2 mL of HRP detection reagent (Thermo scientific cat #A38556) for one minute at room temperature. Excess reagent was drained and gently removed on a Kimwipe and the chemiluminescence signal was detected using Fluorchem imaging system. […] Relative quantification of western blots was performed using ImageJ software, data was then normalized to loading control (β-Actin) first and then to the DMSO-treated sample. […]

GSPT1 = GSPT1 (Homo sapiens, UniProt P15170+Q96SW2); assay: Degradation of GSPT1 (Western blot) in HCC1569 cells; format: cell-based; design: endogenous in cells; host or cells: HCC1569 (ATCC CRL-2330); conditions: HCC1569 cancer cells, 24 h, up to a concentration of 10 μM, FIG. 1C
Method: as §1

Cyclin E1, sequence (P24864 whole entry): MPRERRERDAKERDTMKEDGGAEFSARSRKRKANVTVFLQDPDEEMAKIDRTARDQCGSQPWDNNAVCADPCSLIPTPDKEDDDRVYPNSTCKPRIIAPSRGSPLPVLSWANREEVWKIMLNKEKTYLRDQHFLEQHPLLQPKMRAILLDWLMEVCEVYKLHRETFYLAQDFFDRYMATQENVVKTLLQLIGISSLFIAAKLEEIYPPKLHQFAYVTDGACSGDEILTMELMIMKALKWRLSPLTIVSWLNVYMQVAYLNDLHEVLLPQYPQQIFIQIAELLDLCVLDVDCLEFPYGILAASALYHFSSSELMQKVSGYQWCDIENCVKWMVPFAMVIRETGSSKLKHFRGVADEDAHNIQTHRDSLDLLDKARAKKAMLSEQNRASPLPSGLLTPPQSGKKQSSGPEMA
Cyclin E1, sequence (Q96SW2 whole entry): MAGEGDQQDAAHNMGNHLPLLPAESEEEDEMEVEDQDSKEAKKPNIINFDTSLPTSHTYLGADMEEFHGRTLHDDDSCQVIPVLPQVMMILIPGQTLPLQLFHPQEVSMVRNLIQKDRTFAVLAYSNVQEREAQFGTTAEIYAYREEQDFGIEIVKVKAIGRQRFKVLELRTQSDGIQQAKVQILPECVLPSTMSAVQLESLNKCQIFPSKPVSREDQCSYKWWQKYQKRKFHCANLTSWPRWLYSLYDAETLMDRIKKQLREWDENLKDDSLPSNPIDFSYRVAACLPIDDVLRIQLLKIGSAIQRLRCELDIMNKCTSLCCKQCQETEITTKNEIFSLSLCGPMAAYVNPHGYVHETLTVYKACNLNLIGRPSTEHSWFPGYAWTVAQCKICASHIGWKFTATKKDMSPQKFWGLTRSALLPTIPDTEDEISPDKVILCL
Cyclin E1, sequence (Q16531 whole entry partner): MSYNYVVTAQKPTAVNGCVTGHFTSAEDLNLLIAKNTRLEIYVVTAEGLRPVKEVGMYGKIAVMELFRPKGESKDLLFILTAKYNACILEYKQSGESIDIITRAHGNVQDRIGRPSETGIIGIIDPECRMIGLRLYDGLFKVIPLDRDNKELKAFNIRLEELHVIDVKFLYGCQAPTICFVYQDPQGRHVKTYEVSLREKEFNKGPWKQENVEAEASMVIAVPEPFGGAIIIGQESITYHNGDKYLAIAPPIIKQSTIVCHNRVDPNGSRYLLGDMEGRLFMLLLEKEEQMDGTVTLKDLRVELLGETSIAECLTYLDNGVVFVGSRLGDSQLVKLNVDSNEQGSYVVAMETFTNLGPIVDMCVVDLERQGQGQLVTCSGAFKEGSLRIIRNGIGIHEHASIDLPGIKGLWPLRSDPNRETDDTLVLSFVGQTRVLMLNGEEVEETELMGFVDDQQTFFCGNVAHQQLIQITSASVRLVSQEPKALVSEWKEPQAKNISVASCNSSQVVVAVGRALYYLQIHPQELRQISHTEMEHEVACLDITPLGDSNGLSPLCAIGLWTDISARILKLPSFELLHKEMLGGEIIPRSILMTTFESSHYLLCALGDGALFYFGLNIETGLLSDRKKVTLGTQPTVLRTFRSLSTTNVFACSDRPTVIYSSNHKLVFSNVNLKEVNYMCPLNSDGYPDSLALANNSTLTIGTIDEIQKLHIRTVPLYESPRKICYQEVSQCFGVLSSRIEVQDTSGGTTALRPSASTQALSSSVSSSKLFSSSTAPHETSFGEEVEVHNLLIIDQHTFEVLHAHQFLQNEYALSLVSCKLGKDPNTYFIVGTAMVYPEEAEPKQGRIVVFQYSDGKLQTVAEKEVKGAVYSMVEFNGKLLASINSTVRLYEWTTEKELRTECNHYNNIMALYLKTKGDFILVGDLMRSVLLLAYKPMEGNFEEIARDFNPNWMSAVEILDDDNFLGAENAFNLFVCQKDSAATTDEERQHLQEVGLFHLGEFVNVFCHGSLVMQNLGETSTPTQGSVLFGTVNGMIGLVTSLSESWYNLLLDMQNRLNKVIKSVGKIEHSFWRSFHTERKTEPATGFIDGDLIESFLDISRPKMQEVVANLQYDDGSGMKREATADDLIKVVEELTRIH
GSPT1, sequence (P15170 whole entry): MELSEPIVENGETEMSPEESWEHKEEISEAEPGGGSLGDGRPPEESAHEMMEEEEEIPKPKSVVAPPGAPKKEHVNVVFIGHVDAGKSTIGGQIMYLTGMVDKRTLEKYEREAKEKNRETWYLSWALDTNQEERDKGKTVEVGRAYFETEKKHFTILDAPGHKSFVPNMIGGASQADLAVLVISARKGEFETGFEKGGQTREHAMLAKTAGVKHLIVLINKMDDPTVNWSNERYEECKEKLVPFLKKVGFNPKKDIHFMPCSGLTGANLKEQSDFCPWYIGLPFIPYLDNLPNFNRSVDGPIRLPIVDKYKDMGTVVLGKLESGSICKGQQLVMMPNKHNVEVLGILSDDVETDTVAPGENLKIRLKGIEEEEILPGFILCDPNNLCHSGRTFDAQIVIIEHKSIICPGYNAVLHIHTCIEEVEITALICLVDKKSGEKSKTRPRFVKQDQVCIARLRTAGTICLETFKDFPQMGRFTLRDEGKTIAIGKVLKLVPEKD
GSPT1, sequence (Q96SW2 whole entry): as the sequence (Q96SW2 whole entry) above
GSPT1, sequence (Q16531 whole entry partner): as the sequence (Q16531 whole entry partner) above

**Q.** Which results are given for `COc1c(COC(=O)Nc2ccc(Oc3ccc(F)c(F)c3)cc2)ccc2c1C(=O)N([C@H]1CCC(=O)NC1=O)C2` (single isomer, unassigned) [Example 35, {2-[(3 S)-2,6-dioxopiperidin-3-yl]-4-methoxy-3-oxo-2,3-dihydro-1H-isoindol-5-yl}methyl N-[4-(3,4-difluorophenoxy)phenyl]carbamate]?
**A.** anti-tumor activity [1]: dose-dependent anti-tumor activity; degradation of Cyclin E1 protein (Cyclin E1): induced degradation of Cyclin E1 protein in a dose dependent manner; degradation of GSPT1 protein (GSPT1): did not significantly degrade GSPT1 protein
